US8465726B2, “Stilbene derivatives and their use for binding and imaging amyloid plaques” (The Trustees of the University of Pennsylvania, priority 2004, dated 2013)

Tests used:
[1] = test system: amyloid deposits / Aβ plaques in the brain; settings: cited from earlier work
[2] = Organ distribution in normal mice after iv injection; format: in vivo; settings: ICR mice
Protocol: The organs of interest were removed and weighed, and the radioactivity was assayed for radioactivity content with an automatic gamma counter. The percentage dose per organ was calculated by a comparison of the tissue counts to suitably diluted aliquots of the injected material. Total activities of blood were calculated under the assumption that they were 7% of the total body weight. The % dose/g of samples was calculated by comparing the sample counts with the count of the diluted initial dose.

| SMILES | Biodistribution, Blood ([2]; 2 min after iv injection) [% dose/g] | Biodistribution, Bone ([2]; 2 min after iv injection) [% dose/g] | Biodistribution, Brain ([2]; 2 min after iv injection) [% dose/g] | Biodistribution, Blood ([2]; 30 min after iv injection) [% dose/g] | Biodistribution, Bone ([2]; 30 min after iv injection) [% dose/g] | Biodistribution, Brain ([2]; 30 min after iv injection) [% dose/g] | Biodistribution, Blood ([2]; 1 hr after iv injection) [% dose/g] | Biodistribution, Bone ([2]; 1 hr after iv injection) [% dose/g] | Biodistribution, Brain ([2]; 1 hr after iv injection) [% dose/g] | Biodistribution, Blood ([2]; 2 hr after iv injection) [% dose/g] | Biodistribution, Bone ([2]; 2 hr after iv injection) [% dose/g] | Biodistribution, Brain ([2]; 2 hr after iv injection) [% dose/g] | relative residence time of the brain region of interest versus the pons ([1]; AD patients versus comparison subjects, PET) | retention in the cortex ([1]; patients with diagnosed mild AD) | accumulation in the frontal cortex ([1]; mild to moderate AD patients, not in age-matched control subjects) |
| --- | --- | --- | --- | --- | --- | --- | --- | --- | --- | --- | --- | --- | --- | --- | --- |
| CC(=C(C#N)C#N)c1ccc2cc(N(C)CCF)ccc2c1 [[^18F]FDDNP] | – | – | – | – | – | – | – | – | – | – | – | – | significantly higher in AD patients | – | – |
| [11CH3]Nc1ccc(-c2nc3ccc(O)cc3s2)cc1 [[^11C]6-OH-BTA-1] | – | – | – | – | – | – | – | – | – | – | – | – | – | marked retention | – |
| CNc1ccc(C=Cc2ccc(OCCOCCOCCOCCOCCF)cc2)cc1 [12d, [4-(2-{4-[2-(2-{2-[2-(2-Fluoro-ethoxy)-ethoxy]-ethoxy}-ethoxy)-ethoxy]-phenyl}-vinyl)-phenyl]-methyl-amine] | 4.99 ± 0.38 | 2.24 ± 0.21 | 7.30 ± 1.05 | 4.66 ± 0.06 | 2.29 ± 0.21 | 2.43 ± 0.03 | 2.89 ± 0.11 | 1.66 ± 0.01 | 1.77 ± 0.11 | 2.59 ± 0.18 | 2.35 ± 0.27 | 1.62 ± 0.03 | – | – | – |
| CNc1ccc(C=Cc2ccc(OCCOCCF)cc2)cc1 [12a, [4-(2-{4-[2-(2-Fluoro-ethoxy)-ethoxy]-phenyl}-vinyl)-phenyl]-methyl-amine] | 2.64 ± 0.55 | 1.89 ± 0.25 | 8.14 ± 2.03 | 2.42 ± 0.27 | 1.40 ± 0.11 | 3.00 ± 0.16 | 2.04 ± 0.16 | 1.71 ± 0.23 | 2.60 ± 0.22 | 2.77 ± 0.63 | 2.88 ± 0.07 | 2.14 ± 0.06 | – | – | – |
| [11CH3]Nc1ccc(/C=C/c2ccc(O)cc2)cc1 [[^11C]SB-13] | – | – | – | – | – | – | – | – | – | – | – | – | – | – | high accumulation |

Second part, led by results:

| Biodistribution, Blood ([2]; 2 min after iv injection) [% dose/g] | Biodistribution, Bone ([2]; 2 min after iv injection) [% dose/g] | Biodistribution, Brain ([2]; 2 min after iv injection) [% dose/g] | Biodistribution, Blood ([2]; 30 min after iv injection) [% dose/g] | Biodistribution, Bone ([2]; 30 min after iv injection) [% dose/g] | Biodistribution, Brain ([2]; 30 min after iv injection) [% dose/g] | Biodistribution, Blood ([2]; 1 hr after iv injection) [% dose/g] | Biodistribution, Bone ([2]; 1 hr after iv injection) [% dose/g] | Biodistribution, Brain ([2]; 1 hr after iv injection) [% dose/g] | Biodistribution, Blood ([2]; 2 hr after iv injection) [% dose/g] | Biodistribution, Bone ([2]; 2 hr after iv injection) [% dose/g] | Biodistribution, Brain ([2]; 2 hr after iv injection) [% dose/g] | SMILES | relative residence time of the brain region of interest versus the pons ([1]; AD patients versus comparison subjects, PET) | retention in the cortex ([1]; patients with diagnosed mild AD) | accumulation in the frontal cortex ([1]; mild to moderate AD patients, not in age-matched control subjects) |
| --- | --- | --- | --- | --- | --- | --- | --- | --- | --- | --- | --- | --- | --- | --- | --- |
| 3.22 ± 0.20 | 2.31 ± 0.12 | 6.59 ± 0.19 | 1.88 ± 0.08 | 1.00 ± 0.02 | 1.27 ± 0.03 | 1.81 ± 0.48 | 0.98 ± 0.27 | 1.20 ± 0.10 | 1.60 ± 0.12 | 1.50 ± 0.05 | 1.21 ± 0.06 | CNc1ccc(C=Cc2ccc(OCCOCCOCCOCCF)cc2)cc1 [12c, (4-{2-[4-(2-{2-[2-(2-Fluoro-ethoxy)-ethoxy]-ethoxy}-ethoxy)-phenyl]-vinyl}-phenyl)-methyl-amine] | – | – | – |
| – | – | – | – | – | – | – | – | – | – | 2.74 | – | CNc1ccc(C=Cc2ccc(OCCOCCOCC[18F])cc2)cc1 [[^18F]12b, [^18F]{4-[2-(4-{2-[2-(2-Fluoro-ethoxy)-ethoxy]-ethoxy}-phenyl)-vinyl]-phenyl}-methyl-amine] | – | – | – |
